Experimental data reported in patent EP1980559A1, “Cardiovascular agents” (CTG Pharma S.r.l., priority 2007, dated 2008).

Experiments:
[1] = system: spontaneously hypertensive rats (SHRs); assay: Antihypertensive activity in vivo: systolic blood pressure by telemetry in conscious SHRs; conditions: daily oral dose for 3 days, losartan 10 mg/kg po or equimolar dose; for Systolic blood pressure (SBP) 1 hr: 1 hr after dosing; for Systolic blood pressure (SBP) 12 hr: 12 hr after dosing; for Systolic blood pressure (SBP) 24 hr: 24 hr after dosing
Description: The ability of compound of example 1 to decrease blood pressure was evaluated in conscious spontaneously hypertensive rats (SHRs).
Three groups of SHRs (250-300g) received daily oral dose of losartan (10 mg/kg po) or compound of example 1 (equimolar dose) or vehicle (SHR control group) for 3 days. Systolic blood pressure (SBP) and heart rate were monitored by telemetry at different time points after dosing. The SBP was measured at baseline and after 1 hour, 12 hours and 24 hours.

NAD(P)H oxidases [2] = assay: NAD(P)H oxidases inhibition: superoxide (O2^-) release by ferricytochrome c reduction in PAVSMCs; assay type: cell-based, porcine; conditions: PAVSMCs stimulated with LPS, TNFα and IL1α; 100 nM; 16 hours incubation
Description: (§1) The method described by Muzaffar S, Shukla N, Angelini GD, Jeremy JY; "Prednisolone augments superoxide formation in porcine pulmonary artery endothelial cells through differential effects on the expression of nitric oxide synthase and NADPH oxidase" in Br. J. Pharmacol. 2005 Ju1;145(5):688-97 was used.
(§2) Briefly lungs were obtained from male pigs of body weight ranging from 20 - 35 kg. Pulmonary arteries (PA) of between 3-4 mm diameter were dissected from the lungs within 30 minutes and placed in Dulbecco's Minimum Essential Medium (DMEM). The arteries were then cut into 2 mm segments for preparation of cell cultures. PAECs were grown in Endothelial Cell Growth Medium at 37°C in a 95% air-5% CO2 incubator. The measurement of superoxide (O2^-) release by cells was performed by detection of ferricytochrome c reduction.
(§3) The reduction of cytochrome c that was inhibitable with SOD reflected actual O2^- release. PAVSMCs and PAECS were seeded and incubated with the TXA2 analogue, U46619, isoprostane F2α,LPS (endotoxin) human recombinant IL-1α and human recombinant TNF-α, alone or with drugs for 16 hours. RESULTS
(§4) LPS, IL-1α, TNF-α and U46619 all promoted the formation of O2^- in both porcine pulmonary artery VSMCs (PAVSMCs) and endothelial cells (PAECS) compared to untreated controls following a 16 hour incubation. […]

NAD(P)H oxidases [3] = assay: NAD(P)H oxidases inhibition: superoxide (O2^-) release by ferricytochrome c reduction in PAECs; assay type: cell-based, porcine; conditions: PAECs stimulated with LPS, TNFα and IL1α; 100 nM; 16 hours incubation
Description: as §1, §2, §3, §4

[4] = system: isolated rabbit thoracic aorta preparations; assay: Study on vascular tone: vasorelaxation in isolated rabbit thoracic aorta preparations; conditions: aorta rings contracted submaximally with noradrenaline (1 µM); concentration-response curve
Description: The ability of ARB derivatives to induce vasorelaxation in comparison to native ARB, was tested in vitro in isolated rabbit thoracic aorta preparations (Wanstall J. C. et al., Br. J. Pharmacol., 134:463-472, 2001). Male New Zealand rabbits were anaesthetized with thiopental-Na (50 mg/kg, iv), sacrificed by exsanguinations and then the thorax was opened and the aorta dissected.
Single ring preparations (4 mm in length) of thoracic aorta were set up in physiological salt solution at 37 °C in small organ chambers (5 ml). Each ring was mounted under 2g passive tension in 5 ml organ bath. Preparations were allowed to equilibrate for 1 h, then contracted submaximally with noradrenaline (NA, 1 µM) and, when the contraction was stable, acetylcholine (ACh, 10 µM) was added.
A relaxant response to ACh indicated the presence of a functional endothelium.

Compound | Systolic blood pressure (SBP) 1 hr [1] | Systolic blood pressure (SBP) 12 hr [1] | Systolic blood pressure (SBP) 24 hr [1] | Systolic blood pressure (SBP) Baseline [1] | formation of O2^- (NAD(P)H oxidases [2]) | formation of O2^- (NAD(P)H oxidases [3]) | relaxation [4]
CCCCc1nc(Cl)c(COC(=O)c2ccc(-c3cssc3=S)cc2)n1Cc1ccc(-c2ccccc2-c2nn[nH]n2)cc1 [Cpd EX.1, 4-(3-thioxo-3H-1,2-dithiol-4-yl)benzoic acid 2-butyl-4-chloro-1-[p-(o-1H-tetrazol-5-ylphenyl)-benzyl]imidazole-5-methyl ester] | 120 mm Hg | 121 mm Hg | 122 mm Hg | 145 mm Hg |  |  | 
CCCCc1nc(Cl)c(CO)n1Cc1ccc(-c2ccccc2-c2nn[nH]n2)cc1 [Losartan, losartan] | 135 mm Hg | 134 mm Hg | 135 mm Hg | 143 mm Hg | no significant effect | no significant effect | did not produce relaxation at any of the concentration tested
